Where “and” joins values, the source holds several entries; their conditions need not be identical. Identical values can stand only once.
Experiments:
Assay in all cases: KINOMEscan competition binding
Details in all cases: compound 10.0 µM
AKT1 (human) = AKT1 (human) (UniProt P31749)
CAMK1D (human) = CAMK1D (human) (UniProt Q8IU85)
CDK17 (human) = CDK17 (human) (UniProt Q00537)
CSF1R (human) = CSF1R (human) (UniProt P07333)
CSNK2A1 (human) = CSNK2A1 (human) (UniProt P68400)
CSNK2A2 (human) = CSNK2A2 (human) (UniProt P19784)
EPHA8 (human) = EPHA8 (human) (UniProt P29322)
EPHB1 (human) = EPHB1 (human) (UniProt P54762)
EPHB4 (human) = EPHB4 (human) (UniProt P54760)
FES (human) = FES (human) (UniProt P07332)
FLT1 (human) = FLT1 (human) (UniProt P17948)
[1] = test system: FLT3 (human), P36888 [ITD]
GAK (human) = GAK (human) (UniProt O14976)
GSK3B (human) = GSK3B (human) (UniProt P49841)
LCK (human) = LCK (human) (UniProt P06239)
LIMK1 (human) = LIMK1 (human) (UniProt P53667)
LTK (human) = LTK (human) (UniProt P29376)
LYN (human) = LYN (human) (UniProt P07948)
MAP3K7 (human) = MAP3K7 (human) (UniProt O43318)
MAPK12 (human) = MAPK12 (human) (UniProt P53778)
MAPK7 (human) = MAPK7 (human) (UniProt Q13164)
MAPK8 (human) = MAPK8 (human) (UniProt P45983)
MKNK2 (human) = MKNK2 (human) (UniProt Q9HBH9)
NEK2 (human) = NEK2 (human) (UniProt P51955)
NLK (human) = NLK (human) (UniProt Q9UBE8)
NUAK1 (human) = NUAK1 (human) (UniProt O60285)
PAK3 (human) = PAK3 (human) (UniProt O75914)
PAK7 (human) = PAK7 (human) (UniProt Q9P286)
PIM1 (human) = PIM1 (human) (UniProt P11309)
PIM2 (human) = PIM2 (human) (UniProt Q9P1W9)
PIM3 (human) = PIM3 (human) (UniProt Q86V86)
PKMYT1 (human) = PKMYT1 (human) (UniProt Q99640)
PRKCE (human) = PRKCE (human) (UniProt Q02156)
PRKCH (human) = PRKCH (human) (UniProt P24723)
PRKG2 (human) = PRKG2 (human) (UniProt Q13237)
PTK2 (human) = PTK2 (human) (UniProt Q05397)
RPS6KA5 KD1 (human) = RPS6KA5 KD1 (human) (UniProt O75582)
STK36 (human) = STK36 (human) (UniProt Q9NRP7)
TAOK1 (human) = TAOK1 (human) (UniProt Q7L7X3)
ULK1 (human) = ULK1 (human) (UniProt O75385)
Sequence of ULK1 (human) (O75385 whole entry, looked up): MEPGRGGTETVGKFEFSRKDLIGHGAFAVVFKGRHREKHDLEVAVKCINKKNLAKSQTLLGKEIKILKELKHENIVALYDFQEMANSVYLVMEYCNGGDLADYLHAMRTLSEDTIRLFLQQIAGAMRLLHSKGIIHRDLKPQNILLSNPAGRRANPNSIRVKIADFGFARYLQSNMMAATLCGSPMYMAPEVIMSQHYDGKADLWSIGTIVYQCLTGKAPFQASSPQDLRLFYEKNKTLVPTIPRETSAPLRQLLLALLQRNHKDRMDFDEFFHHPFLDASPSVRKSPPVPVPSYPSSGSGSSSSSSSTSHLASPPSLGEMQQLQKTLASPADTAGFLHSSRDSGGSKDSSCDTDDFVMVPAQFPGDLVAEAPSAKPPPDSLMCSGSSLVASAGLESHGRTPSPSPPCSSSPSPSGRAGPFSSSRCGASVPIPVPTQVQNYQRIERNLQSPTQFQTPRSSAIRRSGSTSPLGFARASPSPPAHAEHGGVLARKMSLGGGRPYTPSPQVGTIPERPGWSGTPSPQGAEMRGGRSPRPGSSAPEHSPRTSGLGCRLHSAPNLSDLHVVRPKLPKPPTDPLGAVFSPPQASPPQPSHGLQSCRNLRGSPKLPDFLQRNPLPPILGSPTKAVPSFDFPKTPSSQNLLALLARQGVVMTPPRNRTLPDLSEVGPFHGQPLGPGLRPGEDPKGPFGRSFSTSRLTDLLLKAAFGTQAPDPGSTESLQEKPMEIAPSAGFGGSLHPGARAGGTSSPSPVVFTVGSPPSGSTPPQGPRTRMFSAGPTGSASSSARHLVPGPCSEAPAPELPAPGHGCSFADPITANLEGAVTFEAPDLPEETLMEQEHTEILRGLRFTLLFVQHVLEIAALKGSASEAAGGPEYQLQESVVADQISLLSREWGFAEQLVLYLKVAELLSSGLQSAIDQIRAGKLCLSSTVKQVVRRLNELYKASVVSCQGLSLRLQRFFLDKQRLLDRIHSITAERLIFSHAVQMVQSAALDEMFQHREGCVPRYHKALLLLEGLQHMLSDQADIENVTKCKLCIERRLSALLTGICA

Sequence of CSF1R (human) (P07333 whole entry, looked up): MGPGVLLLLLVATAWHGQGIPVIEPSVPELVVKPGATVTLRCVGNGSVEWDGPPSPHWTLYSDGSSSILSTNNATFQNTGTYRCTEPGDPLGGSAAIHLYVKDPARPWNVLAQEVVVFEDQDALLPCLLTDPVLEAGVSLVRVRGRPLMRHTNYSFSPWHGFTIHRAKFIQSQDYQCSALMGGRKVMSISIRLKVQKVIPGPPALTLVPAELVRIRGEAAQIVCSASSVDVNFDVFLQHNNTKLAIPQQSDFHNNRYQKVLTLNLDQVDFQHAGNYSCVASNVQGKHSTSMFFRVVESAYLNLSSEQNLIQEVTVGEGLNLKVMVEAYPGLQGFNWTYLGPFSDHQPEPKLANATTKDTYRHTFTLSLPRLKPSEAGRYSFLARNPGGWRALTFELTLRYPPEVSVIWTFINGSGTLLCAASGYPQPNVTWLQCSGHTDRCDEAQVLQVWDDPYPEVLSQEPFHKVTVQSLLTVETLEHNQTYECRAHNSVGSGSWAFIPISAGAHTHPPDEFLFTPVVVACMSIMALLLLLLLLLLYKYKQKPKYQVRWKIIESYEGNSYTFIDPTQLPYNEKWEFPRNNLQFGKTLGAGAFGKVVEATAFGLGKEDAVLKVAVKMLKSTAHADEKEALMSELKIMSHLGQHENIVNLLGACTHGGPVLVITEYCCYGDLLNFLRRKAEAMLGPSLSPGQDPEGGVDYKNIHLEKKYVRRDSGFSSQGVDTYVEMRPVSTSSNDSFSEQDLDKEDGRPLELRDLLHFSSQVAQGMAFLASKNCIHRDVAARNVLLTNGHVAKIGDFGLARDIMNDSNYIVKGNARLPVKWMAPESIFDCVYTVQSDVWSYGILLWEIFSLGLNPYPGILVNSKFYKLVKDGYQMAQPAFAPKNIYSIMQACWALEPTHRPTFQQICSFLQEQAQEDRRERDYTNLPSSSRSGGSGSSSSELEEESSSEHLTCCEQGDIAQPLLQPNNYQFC
Sequence of CAMK1D (human) (Q8IU85 whole entry, looked up): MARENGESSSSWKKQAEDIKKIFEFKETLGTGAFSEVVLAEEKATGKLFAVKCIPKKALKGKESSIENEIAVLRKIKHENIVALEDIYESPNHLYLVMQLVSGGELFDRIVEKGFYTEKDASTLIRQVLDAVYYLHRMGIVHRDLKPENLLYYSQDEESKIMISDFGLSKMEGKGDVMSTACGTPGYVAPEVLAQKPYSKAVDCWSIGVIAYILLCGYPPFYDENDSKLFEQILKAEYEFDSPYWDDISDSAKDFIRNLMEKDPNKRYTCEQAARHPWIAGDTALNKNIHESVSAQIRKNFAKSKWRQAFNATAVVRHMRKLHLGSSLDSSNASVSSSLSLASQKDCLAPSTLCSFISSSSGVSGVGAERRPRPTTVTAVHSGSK
Sequence of FLT3 (human), P36888 [ITD] (P36888 whole entry, looked up, change not shown): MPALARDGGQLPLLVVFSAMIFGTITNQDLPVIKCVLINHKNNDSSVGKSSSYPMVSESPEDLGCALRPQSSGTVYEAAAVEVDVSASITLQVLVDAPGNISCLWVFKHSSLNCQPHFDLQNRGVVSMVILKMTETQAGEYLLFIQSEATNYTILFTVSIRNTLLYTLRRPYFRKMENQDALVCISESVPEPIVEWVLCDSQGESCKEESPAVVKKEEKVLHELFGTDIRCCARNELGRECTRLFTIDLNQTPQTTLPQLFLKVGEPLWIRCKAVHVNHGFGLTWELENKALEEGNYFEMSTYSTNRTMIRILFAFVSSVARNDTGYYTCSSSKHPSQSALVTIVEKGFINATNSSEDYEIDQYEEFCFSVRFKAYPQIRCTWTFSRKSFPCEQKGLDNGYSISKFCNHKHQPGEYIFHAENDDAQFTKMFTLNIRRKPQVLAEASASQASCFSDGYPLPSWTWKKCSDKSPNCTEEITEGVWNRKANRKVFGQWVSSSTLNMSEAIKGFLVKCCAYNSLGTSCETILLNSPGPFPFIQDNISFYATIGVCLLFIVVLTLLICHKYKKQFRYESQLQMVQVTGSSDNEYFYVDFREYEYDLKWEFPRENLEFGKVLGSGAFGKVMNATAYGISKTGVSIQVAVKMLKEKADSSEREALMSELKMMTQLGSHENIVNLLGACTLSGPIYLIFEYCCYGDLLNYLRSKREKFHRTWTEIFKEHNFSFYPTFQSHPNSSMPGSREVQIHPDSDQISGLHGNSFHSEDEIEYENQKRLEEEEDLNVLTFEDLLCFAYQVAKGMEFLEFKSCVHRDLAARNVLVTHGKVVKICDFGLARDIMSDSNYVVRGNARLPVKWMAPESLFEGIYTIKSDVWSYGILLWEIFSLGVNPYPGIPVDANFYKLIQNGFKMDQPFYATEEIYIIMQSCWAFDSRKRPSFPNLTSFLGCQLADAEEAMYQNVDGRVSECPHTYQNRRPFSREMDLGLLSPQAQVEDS
Sequence of PIM1 (human) (P11309 whole entry, looked up): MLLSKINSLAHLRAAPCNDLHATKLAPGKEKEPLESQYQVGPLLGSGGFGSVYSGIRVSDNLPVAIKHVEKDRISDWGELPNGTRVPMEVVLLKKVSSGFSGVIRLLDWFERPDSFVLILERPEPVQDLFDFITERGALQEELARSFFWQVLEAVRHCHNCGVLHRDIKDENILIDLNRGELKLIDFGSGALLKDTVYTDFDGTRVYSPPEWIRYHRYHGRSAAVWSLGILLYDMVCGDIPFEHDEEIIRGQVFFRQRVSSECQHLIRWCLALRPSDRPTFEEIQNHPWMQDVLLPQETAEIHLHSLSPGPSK
Sequence of STK36 (human) (Q9NRP7 whole entry, looked up): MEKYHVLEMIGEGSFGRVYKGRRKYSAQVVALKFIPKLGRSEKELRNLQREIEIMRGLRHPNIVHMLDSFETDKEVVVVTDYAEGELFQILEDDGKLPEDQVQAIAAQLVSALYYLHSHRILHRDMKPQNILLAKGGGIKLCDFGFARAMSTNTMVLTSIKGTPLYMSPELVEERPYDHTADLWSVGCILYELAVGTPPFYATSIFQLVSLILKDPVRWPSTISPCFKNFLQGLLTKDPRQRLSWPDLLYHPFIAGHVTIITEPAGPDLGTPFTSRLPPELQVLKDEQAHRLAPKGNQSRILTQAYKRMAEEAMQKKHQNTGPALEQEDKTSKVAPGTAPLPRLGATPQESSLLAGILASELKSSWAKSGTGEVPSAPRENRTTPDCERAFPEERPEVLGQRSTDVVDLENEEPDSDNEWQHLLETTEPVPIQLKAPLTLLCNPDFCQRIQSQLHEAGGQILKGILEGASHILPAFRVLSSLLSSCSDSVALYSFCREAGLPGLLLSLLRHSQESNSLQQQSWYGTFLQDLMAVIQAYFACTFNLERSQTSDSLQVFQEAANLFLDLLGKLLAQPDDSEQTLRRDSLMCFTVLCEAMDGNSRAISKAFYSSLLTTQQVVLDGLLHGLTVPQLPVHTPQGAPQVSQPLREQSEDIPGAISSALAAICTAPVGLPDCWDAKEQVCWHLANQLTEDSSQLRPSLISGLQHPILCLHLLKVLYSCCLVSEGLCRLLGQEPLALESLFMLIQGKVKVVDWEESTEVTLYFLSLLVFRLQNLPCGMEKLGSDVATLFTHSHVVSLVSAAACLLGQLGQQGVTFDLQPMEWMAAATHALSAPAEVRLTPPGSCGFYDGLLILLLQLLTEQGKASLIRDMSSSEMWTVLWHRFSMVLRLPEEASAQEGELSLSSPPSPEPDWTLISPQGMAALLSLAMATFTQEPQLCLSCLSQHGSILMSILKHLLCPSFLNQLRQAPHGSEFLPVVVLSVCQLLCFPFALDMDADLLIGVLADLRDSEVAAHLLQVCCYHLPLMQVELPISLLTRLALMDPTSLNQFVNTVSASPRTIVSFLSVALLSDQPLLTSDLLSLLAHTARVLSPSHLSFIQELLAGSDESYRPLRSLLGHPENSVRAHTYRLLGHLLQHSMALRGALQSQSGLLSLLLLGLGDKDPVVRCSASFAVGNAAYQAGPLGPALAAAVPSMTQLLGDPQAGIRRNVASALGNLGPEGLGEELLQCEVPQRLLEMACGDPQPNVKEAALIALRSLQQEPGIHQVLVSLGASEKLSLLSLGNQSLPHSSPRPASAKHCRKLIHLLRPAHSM

## N#Cc1c(NC(=O)c2cccc3ccccc23)sc2c1CCCC2
AKT1 (human)
  kinase still bound, per cent of control: 94%
CAMK1D (human)
  kinase still bound, per cent of control: 85%
CDK17 (human)
  kinase still bound, per cent of control: 93%
CSF1R (human)
  kinase still bound, per cent of control: 100% and 84%
CSNK2A1 (human)
  kinase still bound, per cent of control: 89%
CSNK2A2 (human)
  kinase still bound, per cent of control: 94%
EPHA8 (human)
  kinase still bound, per cent of control: 79%
EPHB1 (human)
  kinase still bound, per cent of control: 91%
EPHB4 (human)
  kinase still bound, per cent of control: 100%
FES (human)
  kinase still bound, per cent of control: 100%
FLT1 (human)
  kinase still bound, per cent of control: 87%
[1]
  kinase still bound, per cent of control: 97%
GAK (human)
  kinase still bound, per cent of control: 67%
GSK3B (human)
  kinase still bound, per cent of control: 66%
LCK (human)
  kinase still bound, per cent of control: 85%
LIMK1 (human)
  kinase still bound, per cent of control: 76%
LTK (human)
  kinase still bound, per cent of control: 90%
LYN (human)
  kinase still bound, per cent of control: 78%
MAP3K7 (human)
  kinase still bound, per cent of control: 82%
MAPK12 (human)
  kinase still bound, per cent of control: 82%
MAPK7 (human)
  kinase still bound, per cent of control: 96%
MAPK8 (human)
  kinase still bound, per cent of control: 60%
MKNK2 (human)
  kinase still bound, per cent of control: 92%
NEK2 (human)
  kinase still bound, per cent of control: 65%
NLK (human)
  kinase still bound, per cent of control: 65%
NUAK1 (human)
  kinase still bound, per cent of control: 77%
PAK3 (human)
  kinase still bound, per cent of control: 94%
PAK7 (human)
  kinase still bound, per cent of control: 100%
PIM1 (human)
  kinase still bound, per cent of control: 100%
PIM2 (human)
  kinase still bound, per cent of control: 69%
PIM3 (human)
  kinase still bound, per cent of control: 100%
PKMYT1 (human)
  kinase still bound, per cent of control: 77%
PRKCE (human)
  kinase still bound, per cent of control: 100%
PRKCH (human)
  kinase still bound, per cent of control: 87%
PRKG2 (human)
  kinase still bound, per cent of control: 86%
PTK2 (human)
  kinase still bound, per cent of control: 91%
RPS6KA5 KD1 (human)
  kinase still bound, per cent of control: 85%
STK36 (human)
  kinase still bound, per cent of control: 66%
TAOK1 (human)
  kinase still bound, per cent of control: 100%
ULK1 (human)
  kinase still bound, per cent of control: 100%
